Measured values as given in patent US4528189A, “Urotensin peptides” (The Salk Institute For Biological Studies, priority 1983, dated 1985).
Read-outs that look alike come from different tables or passages of the source.

Assays:
blood pressure [1] = test: mammalian vasodilatory-hypotensive activity (mesenteric blood flow, systemic blood pressure), species not stated; type: in vivo
Method: (§1) The urotensin peptides from Examples II and III are examined for effects on the secretion of ACTH and β-endorphin in vitro and also examined in vivo. […] UI activity of the peptides was measured by the isolated rat hind limb assay, Lederis, K. et al. "Effects and Assay of Urotensin I on the Perfused Hind Limb of the Rat", Gen. Comp. Endocrinol., 24:10-16, 1974. In vivo hypotensive activity of extracted peptides was measured in anaesthetized rats, Lederis, K. and Medakovic, M. "Pharmacological Observations on the Hypotensive Action of Extracts of Teleost Fish Urophyses (Urotensin I) in the Rat", Br. J. Pharmacol. 51:315-324, 1974, and in anaesthetized dogs, MacCannell and Lederis, "Dilatation of the Mesenteric Vascular Bed of the Dog Produced by a Peptide, Urotensin I", J. Pharm. Exp. Ther. 203:38-46, 1977.
(§2) The peptide having the formula: Ac-[…]NH2 is synthesized.
The peptide having the formula: H-Pro-Pro-Ile-Ser-Ile-Asp-Leu-Thr-Phe-His-Leu-Leu-Arg-Asn-Met-Ile-Glu-Met- Ala-Arg-Ile-Glu-Asn-Glu-Arg-NH2 is synthesized.

teleost fish pituitaries = test: secretion of ACTH by teleost fish pituitaries
Method: as §1

[2] = comparison of extracted and synthetic sucker peptides (activity relative to extracted peptide); conditions: synthetic versus extracted peptide
Method: (§3) In the pentobarbital-anaesthetized dog, the threshold dose of UI for mesenteric vasodilatation, when given close arterially into the cephalic mesenteric A, is between 0.001 and 0.01 μg for both sucker UI (1-41) and for the 4-41 fragment of sucker UI. Doses of 0.1-0.5 μg of both peptides produce a 50-150% increase in mesenteric flow; accompanying changes in blood pressure are very modest (about 10% decrease). […] Comp. Endocrinol. 45:446-452, 1981. Comparison of the two extracted and the two synthetic sucker peptides indicate that synthetic UI(1-41) have 111±16% activity and synthetic UI (4-41) have 123±14% activity, relative to the activity of the respective extracted sucker UI peptides.

mesenteric vascular bed [3] = test: blood pressure and vascular dilatation in the monkey; type: in vivo; conditions: for depression of the blood pressure: appears due solely to dilatation of the mesenteric vascular bed
Method: as §1

[4] = tested on: cultured rat pituitary cells; test: secretion of ACTH and β-endorphin by cultured rat pituitary cells; type: cell-based; conditions: for potency to stimulate the secretion of ACTH and β-endorphin: in vitro; for potency to stimulate ACTH and β-endorphin secretion compared with amunine (CRF): the two peptides substantially indistinguishable from each other
Method: as §1

mesenteric vascular bed [5] = test: blood pressure and mesenteric vasodilatation in the anaesthetized dog; type: in vivo; conditions: for potency of synthetic peptide versus extracted and purified peptide: anaesthetized dog in vivo; for dilatation of other (non-mesenteric) vascular beds / depression of the blood pressure: dog; for depression of the blood pressure: appears due solely to dilatation of the mesenteric vascular bed; for accompanying change in blood pressure (decrease) / increase in mesenteric flow: pentobarbital-anaesthetized dog, doses of 0.1-0.5 μg
Method: as §1, §3

blood pressure [6] = test: in vivo hypotensive activity in anaesthetized rats; conditions: rat; vascular dilatation appears less selective
Method: (§4) UI activity in the fractions was measured by the isolated rat hind limb assay, Lederis, K. et al. "Effects and Assay of Urotensin I on the Perfused Hind Limb of the Rat." Gen Comp Endocrinol. 24:10-16, 1974. In vivo hypotensive activity of extracted peptides or those obtained by enzymatic cleavage was measured in anaesthetized rats, Lederis, K. et al. "Pharmacological Observations on the Hypotensive Action of Extracts of Teleost Fish Urophyses (Urotensin I) in the Rat", Br. J. Pharmac. 51:315-324, 1974.
as §1

isolated rat hind limb = isolated rat hind limb assay
Method: as §4
as §1, with “1977. […]” for “1977.”

[7] = tested on: ACTH and β-END-LI secretion; test: ACTH and β-END-LI secretion in vivo in several rat preparations
Method: as §1

[8] = tested on: isolated mesenteric artery strips; test: isolated mesenteric artery strips of the rat
Method: as §3

[9] = tested on: ACTH and β-END-LI secretion; test: secretion of ACTH and β-END-LI, general procedure (Examples V, VI); conditions: general procedure of Example III as printed
Method: as §1, §2

blood pressure [10] = conditions: reported, Erspamer et al.; cited from earlier work
[11] = tested on: ACTH and β-endorphin secretion; conditions: reported; cited from earlier work

Row | Molecule | vasodilatory-hypotensive activity (mesenteric blood flow, systemic blood pressure) (blood pressure [1]) | potency in stimulating the secretion of ACTH relative to amunine (teleost fish pituitaries) | activity relative to the activity of the respective extracted sucker UI peptide [2] [%] | dilatation of other (non-mesenteric) vascular beds (mesenteric vascular bed [3]) | depression of the blood pressure (mesenteric vascular bed [3]) | potency to stimulate the secretion of ACTH and β-endorphin [4] | potency to stimulate ACTH and β-endorphin secretion compared with amunine (CRF) [4] | potency of synthetic peptide versus extracted and purified peptide (mesenteric vascular bed [5]) | dilatation of other (non-mesenteric) vascular beds (mesenteric vascular bed [5]) | depression of the blood pressure (mesenteric vascular bed [5]) | accompanying change in blood pressure (decrease) (mesenteric vascular bed [5]) | increase in mesenteric flow (mesenteric vascular bed [5]) | fall in blood pressure (blood pressure [6]) | potency of synthetic peptide versus extracted and purified peptide (isolated rat hind limb) | stimulation of ACTH and β-END-LI secretion in vivo [7] | potency of synthetic peptide versus extracted and purified peptide [8] | further results
1 | H-PPISIDLTFHLLRNMIEMARIENEREQAGLNRKYLDEV-NH2 [urotensin I (4-41)] | substantially lower blood presssure for an extended time period | several times more potent than amunine | 123±14 | neither peptide dilates other vascular beds | modest but sustained depression of the blood pressure | high potency | comparable to amunine (CRF) | equipotent with the extracted and purified peptides | neither peptide dilates other vascular beds | modest but sustained depression of the blood pressure | about 10% | 50-150% | more marked fall in blood pressure | equipotent with the extracted and purified peptides | stimulate ACTH and β-END-LI secretion in vivo | equipotent with the extracted and purified peptides | potency to stimulate the secretion of ACTH and β-endorphin ([4]; listed as UI 4-41): stimulate ACTH and β-endorphin activies in vitro; stimulation of ACTH and β-END-LI secretion in vivo ([7]; listed as UI 4-41): stimulate ACTH and β-endorphin activies in vitro and in vivo
2 | H-PPISIDLTFHLLRNMIEMARIENER-NH2 [VI, H-Pro-Pro-Ile-Ser-Ile-Asp-Leu-Thr-Phe-His-Leu-Leu-Arg-Asn-Met-Ile-Glu-Met- Ala-Arg-Ile-Glu-Asn-Glu-Arg-NH2] | significant mammalian vasodilatory-hypotensive activity | – | – | – | – | – | – | – | – | – | – | – | – | – | – | – | –
3 | Ac-APPISIDLTFHLLRNMIEMARIENEREQAGLNRKYLDEV-NH2 [V] | very significant increasing of mesenteric blood flow and lowering of systemic blood pressure | – | – | – | – | – | – | – | – | – | – | – | – | – | – | – | stimulation of the secretion of ACTH and β-END-LI [9]: stimulates the secretion of ACTH and β-END-LI
4 | CC[C@H](C)[C@H](NC(=O)[C@@H](NC(=O)[C@H](CC(=O)O)NC(=O)[C@H](CC(C)C)NC(=O)[C@H](CC(C)C)NC(=O)[C@H](CC(C)C)NC(=O)[C@H](CCCNC(=N)N)NC(=O)[C@H](CC(N)=O)NC(=O)[C@H](CC(N)=O)NC(=O)[C@H](C)NC(=O)[C@H](C)NC(=O)[C@H](CCC(N)=O)NC(=O)[C@H](CCC(N)=O)NC(=O)[C@H](CCCCN)NC(=O)[C@H](CCC(=O)O)NC(=O)[C@H](CCCCN)NC(=O)[C@H](CCC(=O)O)NC(=O)[C@H](CCC(N)=O)NC(=O)[C@H](CCCCN)NC(=O)[C@H](CCC(=O)O)NC(=O)[C@@H](NC(=O)[C@H](CCC(=O)O)NC(=O)[C@@H](NC(=O)[C@H](CCSC)NC(=O)[C@H](CCCCN)NC(=O)[C@H](CCCNC(=N)N)NC(=O)[C@H](CC(C)C)NC(=O)[C@H](CC(C)C)NC(=O)[C@H](CCC(=O)O)NC(=O)[C@H](CC(C)C)NC(=O)[C@H](CO)NC(=O)[C@H](CC(C)C)NC(=O)[C@H](CC(=O)O)NC(=O)[C@@H](NC(=O)[C@H](CO)NC(=O)[C@@H](NC(=O)[C@@H]1CCCN1C(=O)[C@@H]1CCCN1C(=O)CNC(=O)[C@@H]1CCC(=O)N1)[C@@H](C)CC)[C@@H](C)CC)[C@@H](C)CC)[C@@H](C)CC)[C@@H](C)O)C(N)=O [Sauvagine] | – | – | – | – | – | – | – | – | – | – | – | – | – | – | – | – | lowering blood pressure in mammals (blood pressure [10]): biological activity in lowering blood pressure in mammals; stimulating the secretion of ACTH and β-endorphin [11]: stimulating the secretion of ACTH and β-endorphin
5 | H-NDDPPISIDLTFHLLRNMIEMARIENEREQAGLNRKYLDEV-NH2 [urotensin I] | substantially lower blood presssure for an extended time period | several times more potent than amunine | 111±16 | neither peptide dilates other vascular beds | modest but sustained depression of the blood pressure | high potency | comparable to amunine (CRF) | equipotent with the extracted and purified peptides | neither peptide dilates other vascular beds | modest but sustained depression of the blood pressure | about 10% | 50-150% | more marked fall in blood pressure | equipotent with the extracted and purified peptides | stimulate ACTH and β-END-LI secretion in vivo | equipotent with the extracted and purified peptides | potency to stimulate the secretion of ACTH and β-endorphin ([4]; listed as synthetic UI): stimulate ACTH and β-endorphin activies in vitro; stimulation of ACTH and β-END-LI secretion in vivo ([7]; listed as synthetic UI): stimulate ACTH and β-endorphin activies in vitro and in vivo
